In US20220362386A1, “LIQUID COMPOSITIONS COMPRISING A LEVODOPA AMINO ACID CONJUGATE AND USES THEREOF” (NeuroDerm, Ltd., priority 2019, published 2022):
Where a name gives a salt, the structure may show the parent alone. Read-outs that look alike come from different tables or passages of the source. Non-standard residues stand in square brackets, D forms with d. Residues, ends and D or L forms follow the SMILES beside them. Dopa = N[C@@H](Cc1ccc(O)c(O)c1)C(=O)O

How the values were obtained:
[1] = Human blood stability test; format: in vitro ADME; set-up: key: slope of % decrease of remaining compound over time; higher = faster metabolism; settings: slope of the percentage decrease of remaining compound; substrate 10 μM; 0-60 minutes
Protocol: The stability of several LDAA compounds in human blood was tested. The substrate concentration was 10 μM and the incubation time 0, 5, 15, 30 and 60 minutes.
The results are described in Table 19, wherein the results describe the Ke, i.e., the slope of the percentage decrease of the remaining amount of the compound, measured at each of the above time points, such that the higher the Ke the faster the metabolism.

[2] = Comparative formulation tests, physical stability (Tables 32a-c, 33a-c); format: physicochemical; settings: LDAA TFA salt/CD formulation; for Physical stability (visual), Day 1: Day 1, room temperature; for Physical stability (visual), Day 2: Day 2, room temperature; for Physical stability (visual), Day 5: Day 5, room temperature after two days at 2-8° C.; for Physical stability (visual), Day 6: Day 6, room temperature after two days at 2-8° C.; for Physical stability (visual), Day 40: Day 40, returned to 2-8° C.
Protocol: It is noted that the formulations were similarly to those above; however, CD was added, and further, the amounts of the antioxidants, i.e., ascorbic acid and NAC, were added at three different concentrations, as detailed in Tables 32a-c below. Further, an additional amount of arginine was added to the solution in order to adjust the pH to a physiologically acceptable pH.
The formulations prepared as detailed in Tables 32a, 32b and 32c were (a) held at room temperature for two days; (b) transferred to a refrigerator (2-8° C.) for two days; and (c) transferred from the refrigerator to room temperature for an additional two days, during which they were assessed again for precipitants. The formulations were then returned to the refrigerator (2-8° C.) and assessed for precipitants on day 40. The physical stability of each formulation was assessed on the first two days and again on the last two days. The physical stability of the formulations was assessed visually. A clear solution was considered to be stable, while a solution comprising precipitants was considered to be physically unstable. The stability results of the formulations of Tables 32a, 32b and 32c are detailed in Tables 33a, 33b and 33c, respectively.

[3] = In-vitro absorption, Caco-2 A-B permeability; format: in vitro ADME, human; settings: human, Caco-2, pH 7.4, Caco-2 A-B, without verapamil; for Papp A→B at 60 min, 10 μM: 1.0E−05M
Protocol: (§1) Conditions may be adjusted when necessary.
(§2) D denotes donor and R is receiver. […] V is the volume of the donor or receiver.
(§3) The test was performed with and without verapamil, which is a permeation inhibitor, and the results are presented in Tables 22 (without verapamil) and 34 (with verapamil).

P-gp = assay: In-vitro absorption, Caco-2 A-B permeability; format: in vitro ADME, human; settings: human, Caco-2, pH 7.4, with verapamil 100 μM on both the A and B sides, Caco-2 A-B, in the presence of verapamil
Protocol: as §1, §2, §3

[4] = Human liver S9 stability test; format: in vitro ADME; settings: substrate 10 μM, S9 protein 0.2 mg/mL; for Ke: slope of the percentage decrease of remaining compound, 0-60 minutes
Protocol: The stability of several LDAA compounds, in their TFA salt form, in human liver S9 was tested using commercially available liver S9. The substrate concentration was 10 μM, the S9 protein concentration was 0.2 mg/mL, and the incubation time 0, 5, 15, 30 and 60 minutes.
The results are described in Table 18, wherein the results describe the Ke, i.e., the slope of the percentage decrease of the remaining amount of the compound, measured at each of the above time points, such that the higher the Ke the faster the metabolism.

human plasma = assay: Protein binding, equilibrium dialysis method; format: in vitro ADME; settings: 1.0E-05M; 37° C., 4 h
Protocol: (§4) The protein binding values of various LDAA compounds in their TFA salt form (10^−5M) were tested in human plasma. The equilibrium dialysis technique was used to separate the fraction of the test compound that was unbound from the fraction of the test compound that bound to proteins during the test. The test was performed on 96-well plates in a dialysis block constructed from Teflon™.
(§5) The protein containing matrix used was human plasma, wherein the assay matrix was human serum albumin and alpha-1 acid glycoprotein. The protein matrix was spiked with each test compound at 10 μM (by default, n=2) with a final DMSO concentration of 1%. The dialysate compartment is loaded with phosphate buffered saline (PBS, pH 7.4), and the sample compartment was loaded with an equal volume of the spiked protein matrix. The dialysis plate was then sealed and incubated at 37° C. for 4 h.
(§6) Following the incubation, samples were taken from each compartment, diluted with PBS followed by the addition of acetonitrile, after which the samples were centrifuged. The supernatants were collected and analyzed by HPLC-MS/MS. The HPLC tests included a binary LC pump with an autosampler, a C18 column (2×20 mm), and gradient elution. The HPLC conditions were adjusted when necessary.
(§7) A control sample (n=2) was prepared from the spiked protein matrix in the same manner; however, no dialysis was performed on the control. It is noted that the control sample served as the bases for the recovery determination.
(§8) Acebutolol, quinidine, and warfarin were used in each assay as reference compounds, wherein it is known that those reference compounds provide low, medium and high human plasma protein binding values, respectively.
(§9) The % of the tested compound that is bound to proteins and the recovery values were calculated as follows:
(§10) Protein binding (%)=100×(Areap−Areab)/Areap
(§11) Recovery (%)=100×(Areap−Areab)/Areac
(§12) The determination of the recovery % serves as an indicator of reliability of the calculated protein binding value. […] This is most likely due to non-specific binding or degradation of the test compound. It is noted that a recovery of above 60% is considered to be reliable, while under 60% recovery, the results of the test are considered to be unreliable.

[5] = Protein binding, equilibrium dialysis method; format: in vitro ADME, human; settings: human, human plasma, pH 7.4, 1.0E-05M
Protocol: as §4, §5, §6, §7, §8, §9, §10, §11, §12

[6] = NB 144-15, ~0.1% Asc + ~0.1% NAC
[7] = NB 144-18, ~0.4% Asc + ~0.4% NAC
[8] = NB 144-20, ~0.8% Asc + ~0.8% NAC
[9] = read-out: Percent Recovery Mean

Compound	Ke [1]	Physical stability (visual), Day 1 [2, 6]	Physical stability (visual), Day 2 [2, 6]	Physical stability (visual), Day 5 [2, 6]	Physical stability (visual), Day 6 [2, 6]	Physical stability (visual), Day 40 [2, 6]	Physical stability (visual), Day 1 [2, 7]	Physical stability (visual), Day 2 [2, 7]	Physical stability (visual), Day 5 [2, 7]	Physical stability (visual), Day 6 [2, 7]	Physical stability (visual), Day 40 [2, 7]	Physical stability (visual), Day 1 [2, 8]	Physical stability (visual), Day 2 [2, 8]	Physical stability (visual), Day 5 [2, 8]	Physical stability (visual), Day 6 [2, 8]	Physical stability (visual), Day 40 [2, 8]	Papp A→B at 60 min, 10 μM ([3]; read-out: Permeability 1st) [×10⁻⁶ cm/s]	Papp A→B at 60 min, 10 μM ([3]; read-out: Permeability 2nd) [×10⁻⁶ cm/s]	recovery at 60 min, 10 μM ([3]; read-out: Percent Recovery 1st) [%]	Ke [4]	further results
N[C@@H](Cc1ccc(O)c(O)c1)C(=O)N[C@@H](Cc1ccc(O)cc1)C(=O)O [LD-Tyr TFA salt, Levodopa Tyrosine TFA Salt] (H-[Dopa]-Tyr-OH)	0.0426	Stable	Stable	Precipitated	Precipitated	Precipitated	Stable	Stable	Stable	Stable	Stable	Stable	Stable	Stable	Stable	Stable	0.05	0.04	45	0.0217	recovery at 60 min, 10 μM ([3]; read-out: Percent Recovery 2nd): 39%; recovery at 60 min, 10 μM [3, 9]: 42%; recovery at 60 min, 10 μM (P-gp; read-out: Percent Recovery 1st): 40%; recovery at 60 min, 10 μM (P-gp; read-out: Percent Recovery 2nd): 39%; recovery at 60 min, 10 μM (P-gp; [9]): 40%; metabolism in human liver S9 (in words) [4]: rapidly metabolized
NC(=O)C[C@H](NC(=O)[C@@H](N)Cc1ccc(O)c(O)c1)C(=O)O [LD-Asn TFA salt, Levodopa Asparagine TFA Salt] (H-[Dopa]-Asn-OH)	0.0038	–	–	–	–	–	–	–	–	–	–	–	–	–	–	–	0.6	0.47	62	0.0015	Papp A→B at 60 min, 10 μM ([3]; read-out: Permeability Mean): 0.5 ×10⁻⁶ cm/s; recovery at 60 min, 10 μM ([3]; read-out: Percent Recovery 2nd): 78%; recovery at 60 min, 10 μM [3, 9]: 70%; recovery at 60 min, 10 μM (P-gp; read-out: Percent Recovery 1st): 65%; recovery at 60 min, 10 μM (P-gp; read-out: Percent Recovery 2nd): 62%; recovery at 60 min, 10 μM (P-gp; [9]): 63%
N=C(N)NCCC[C@H](NC(=O)[C@@H](N)Cc1ccc(O)c(O)c1)C(=O)O [LD-Arg TFA salt, Levodopa Arginine TFA Salt]	0.0919	Stable	Stable	Stable	Stable	Stable	Stable	Stable	Stable	Stable	Stable	Stable	Stable	Stable	Stable	Stable	0.1	0.09	26	0.1268	% Protein Bound 1st (human plasma): 44.1%; % Protein Bound 2nd (human plasma): 26.4%; % Protein Bound Mean (human plasma): 35%; recovery at 4 h, 10 μM ([5]; read-out: % Recovery 1st): 6%; recovery at 4 h, 10 μM ([5]; read-out: % Recovery 2nd): 5%; recovery at 4 h, 10 μM ([5]; read-out: % Recovery Mean): 6%; Papp A→B at 60 min, 10 μM ([3]; read-out: Permeability Mean): < 0.1 ×10⁻⁶ cm/s; recovery at 60 min, 10 μM ([3]; read-out: Percent Recovery 2nd): 26%; recovery at 60 min, 10 μM [3, 9]: 26%; recovery at 60 min, 10 μM (P-gp; read-out: Percent Recovery 1st): 25%; recovery at 60 min, 10 μM (P-gp; read-out: Percent Recovery 2nd): 26%; recovery at 60 min, 10 μM (P-gp; [9]): 25%; metabolism in human liver S9 (in words) [4]: rapidly metabolized
N[C@@H](Cc1ccc(O)c(O)c1)C(=O)N[C@@H](CC(=O)O)C(=O)O [LD-Asp TFA salt, Levodopa Aspartic Acid] (H-[Dopa]-Asp-OH)	0.0014	Stable	Stable	Stable	Stable	Stable	Stable	Stable	Stable	Stable	Stable	Stable	Stable	Stable	Stable	Stable	–	–	–	0.0008	% Protein Bound 1st (human plasma): 99.1%; % Protein Bound 2nd (human plasma): 99.4%; % Protein Bound Mean (human plasma): 99%; recovery at 4 h, 10 μM ([5]; read-out: % Recovery 1st): 105%; recovery at 4 h, 10 μM ([5]; read-out: % Recovery 2nd): 108%; recovery at 4 h, 10 μM ([5]; read-out: % Recovery Mean): 107%
